For orientation: IC50 means the concentration that inhibits the measured activity by half.

The record followed here is PubChem BioAssay AID2305 (GlaxoSmithKline (GSK), 2010).

For the assay, the system named is P. falciparum 3D7 growth, pLDH absorbance. Nature of the assay: P. falciparum 3D7 growth inhibition, dose response, strain 3D7 (AID 2305).

The structures appear in SMILES notation. Where a SMILES comes first, the peptide text is derived from it. The star is where a group is joined. Boc = CC(C)(C)OC(=O)*

As to `COc1cc(Nc2nccc(-c3c(-c4cccc(NC(=O)c5c(F)cccc5F)c4)nn4ncccc34)n2)cc(OC)c1OC`, the IC50 came out at 30 nM. `CCCCCC(C)C(C)c1cc(O)c2c(c1)OC(C)(C)CC2(O)c1ccccn1` (configuration not stated) showed an IC50 of 740 nM. The result for `CCOc1cccc(C(=O)Nc2ccc(-c3nc4ccccc4[nH]3)cc2)c1` reads 1010 nM; that for `Oc1ccccc1CN1CCC2(CCCN(Cc3ccccc3F)C2)C1` (configuration not stated), 680 nM.

`CCOc1ccc2ccccc2c1C(=O)Nc1cc(C)nn1-c1nc(C)cc(=O)[nH]1` gave an IC50 of 1010 nM. The IC50 values of the last two molecules are within 1.5-fold of each other. As to `O=C(Nc1ccc(Cl)cc1)c1ccc(S(=O)(=O)NCC2CCN(CC3CCCCC3)CC2)cc1`, the IC50 was 860 nM. The figure for `O=C(COc1ccc(Cl)c(Cl)c1)NCCCCCN1CCCN(C(=O)Nc2cc(Cl)cc(Cl)c2)CC1` is 1140 nM. Consider `COc1ccc(-c2cc(C(F)(F)F)n3ncc(C(=O)Nc4cc(C)ccc4O)c3n2)cc1OC`, for which the IC50 turned out to be 130 nM.

`O=C(Nc1cccc(Cl)c1)c1cnc(N2CCN(c3ccncc3)CC2)c(Cl)c1`: the IC50 was 960 nM. This IC50 is about 7.4-fold higher than that of the molecule before. As to `Cn1ccc2c3c(N)nc(N)nc3ccc21`, the IC50 is 900 nM. The result for `Cn1nc(-c2cccc(CNCCc3cccs3)c2)c2cnc(NC3CCCC3)nc21` reads 1890 nM; that for `CC(=O)Oc1c(C2CCN(CCCCNC(=O)c3ccc(NC(=O)c4ccc(Cl)cc4)cc3)CC2)ccc2ccccc12`, 880 nM; that for `O=S(=O)(NCCN1CCCC1)c1ccc(-c2ccc(CNCc3ccccc3)cc2)cc1`, 780 nM. Molecule `FC(F)(F)c1cc(Nc2ncnc3ccc(Br)cc23)ccc1OCc1ccccc1` returned an IC50 of 1080 nM.

In the case of `CN=C(N)c1ccc(NC(=O)C=Cc2ccc(C(=O)Nc3ccc(C(N)=NC)cc3)cc2)cc1`, the IC50 was 30 nM. The figure for `Cc1ccc(NC(=O)c2cnc(N3CCN(c4ccncc4)CC3)c(Cl)c2)cc1` is 960 nM; for `COc1cc(NCCCNCc2cn(S(=O)(=O)c3ccccc3)c3ccccc23)nc2ccccc12` it is 390 nM.

The molecule `CCc1cccc2sc(N3CCN(C(=O)c4ccc([N+](=O)[O-])o4)CC3)nc12` displayed an IC50 of 770 nM. Regarding `OC(c1n[nH]c(=S)n1-c1ccccc1)C(O)c1n[nH]c(=S)n1-c1ccccc1` (configuration not stated), the IC50 was 740 nM. The result for `O=C(Nc1cccc(-c2ccc(-c3nc4ccccc4[nH]3)cc2)c1)c1ccncc1` reads 530 nM; that for `FC(F)(F)c1ccc2nc(-c3ccc(-c4cccc(CN5CCCCC5)c4)cc3)[nH]c2c1`, 140 nM. `COc1ccc2c(-c3ccccc3)noc2c1` registered an IC50 of 240 nM.

With `COc1ccc2nc(C)cc(Nc3ccc(N4CCN(C)CC4)cc3)c2c1`, the IC50 was determined as 790 nM. `Cc1cc(Nc2ccc(C)c(C)c2)n2nc(C)nc2n1` came in with an IC50 of 600 nM. The figure for `CCOC(=O)c1c(CCc2ccc(C(F)(F)F)cc2)nc2c(c1-c1ccc(C(=O)N[C@@H](C)c3ccncc3)cc1)C(=O)N1CCC[C@@H]21` is 920 nM; for `CCN(CCCN1CCCCC1)c1cc(C)nc(Nc2ccc(Oc3ccccc3)cc2)n1` it is 300 nM.

With `O=C(/C=C/c1ccc(Cl)c(Cl)c1)NCCCCCN1CCC(NC(=O)Nc2cc(Cl)nc(Cl)c2)CC1`, the IC50 stood at 980 nM. This IC50 is about 3.3-fold higher than that of the molecule before. The result for `CCCNCc1ccc(-c2ccc(CN(Cc3ccc4c(c3)OCO4)C(=O)Cc3cccnc3)cc2)nc1` reads 860 nM; that for `Cc1[nH]c(C)c(-c2ccc(Oc3cccc(Cl)c3)cc2)c(=O)c1Br`, 30 nM. Consider `CC(C)N1CCN(C(=O)c2ccc(CNCCCN3CCN(c4ccccc4C(F)(F)F)CC3)s2)CC1`, for which the IC50 was found to be 840 nM. As to `COc1ccc2nccc([C@@H](O)CN3CCC(NCCOc4ccncc4)CC3)c2c1`, the IC50 was 690 nM. The figure for `O=C(/C=C/c1ccc(Cl)c(Cl)c1)NCCCCCN1CCC(NC(=O)Nc2ccc(Cl)cc2Cl)CC1` is 640 nM; for `Nc1nc(N)c2c(Cl)c(CNc3cccc(C(=O)O)c3)ccc2n1` it is 10 nM. Consider `O=C1NC(=O)C(c2ccc(Cl)cc2)=C1Nc1cccc(S(=O)(=O)C(F)(F)F)c1`, for which the IC50 amounted to 740 nM. This IC50 lies about 74-fold higher than the previous one. The result for `Cc1cc2c(NC(=O)NC3CCN(CCc4ccccc4Cl)CC3)cccc2cn1` reads 390 nM. The figure for `Cc1cnc(-c2cccc(C(=O)NC3CCC(CCN4CCc5ccc(C#N)cc5CC4)CC3)c2)[nH]1` (configuration not stated) is 300 nM; for `COc1ccc(CCNC(=O)c2ccc(-n3cc(NC(=O)c4cccnc4)cn3)cc2)cc1OC` it is 1070 nM; for `Cc1nnsc1C(=O)Nc1cccc(-c2ccc(-c3nc4c(C)cccc4[nH]3)s2)c1` it is 1120 nM. The result for `CN(c1ccccc1C(=O)Nc1cc(Cl)ccc1Oc1ccccc1)S(=O)(=O)c1ccccc1` reads 740 nM; that for `CC(C)(C)c1ccc(-c2ccccc2CNC(=O)c2cccc(O)c2)cc1`, 270 nM; that for `COCCN1CCC(N(Cc2ccc(-c3ccc(OC(F)(F)F)cc3)cc2)C(=O)Cn2c(CCc3cccc(F)c3F)cc(=O)c3ccccc32)CC1`, 1210 nM. The molecule `COc1ccc(CCc2ccc(-c3c(C)[nH]c(C)c(Cl)c3=O)cc2)cc1OC` displayed an IC50 of 90 nM. In turn, `CC1(C)[C@H]2CC[C@]1(C)CN(CC(O)Cn1c3ccccc3c3cc(I)ccc31)C2` (some centres not stated) registered an IC50 of 1160 nM. The result for `CNC(=O)c1[nH]c(-c2ccccc2)nc1NC(C)=O` reads 150 nM. The figure for `Oc1ccccc1CNCC(O)c1cc(C(F)(F)F)cc(C(F)(F)F)c1` (configuration not stated) is 180 nM; for `CN(C)Cc1ccc(-c2cccc(NC(=O)c3ccc(Cl)cc3)c2)cc1` it is 900 nM; for `CCCC(C)C(=O)N1CCOC(COCc2cccc(C(F)(F)F)c2)(c2ccc(Cl)cc2)C1` (configuration not stated) it is 400 nM. The figure for `O=C(NC1CCN(c2ncc(C(F)(F)F)cc2Cl)CC1)c1cccs1` is 900 nM; for `O=C(NCCN1CCC(c2ncc(-c3ccccc3)o2)CC1)c1ccc(NC(=O)c2ccc(Cl)cc2)cc1` it is 240 nM; for `O=C(NCCCCN1CCC(c2ccc(OC(F)(F)F)cc2)CC1)c1ccc(NC(=O)c2ccc(Cl)cc2)cc1` it is 630 nM. Consider `Cc1ccccc1C(=O)NC(NC(=S)Nc1ccc([N+](=O)[O-])cc1)C(Cl)(Cl)Cl` (configuration not stated), for which the IC50 was 740 nM.

Turning to `COc1cc(Nc2nc(N)c3cc(OC)c(OC)cc3n2)cc(OC)c1`, the IC50 is 270 nM.

The molecule `CCOC(=O)c1ccc(NC(=O)N(Cc2ccc(-c3cccc(CN4CCNCC4)c3)cc2)C2CCN(Cc3ccccc3)CC2)cc1` gave a 50% inhibitory concentration (IC50) of 750 nM. The figure for `COC(=O)CC[C@H](NC(=O)[C@H](C)NC(=O)OC(C)(C)C)C(=O)OC` (Boc-Ala-Glu(OMe)-OMe) is 820 nM; for `CCC1(C)CC(CCNCc2ccccc2O)(c2ccccc2OC)CCO1` (configuration not stated) it is 720 nM; for `Cc1[nH]c(C)c(-c2ccc(C(=O)c3ccc(Cl)cc3)cc2)c(=O)c1Br` it is 810 nM. The figure for `Nc1ccc(-c2ccc(NC(=O)Nc3ccccc3)cc2)cn1` is 920 nM. The figure for `O=C(Nc1cccc(CN2CCCN(CCc3ccccc3)CC2)c1)c1ccc(Cl)c(Cl)c1` is 950 nM; for `CC(C)C[C@H](NC(=O)OC(C)(C)C)C(=O)Nc1ccc(Cc2ccc(NC(=O)[C@H](CC(C)C)NC(=O)OC(C)(C)C)cc2)cc1` it is 760 nM; for `COC(=O)C(C)(C)Cc1c(SC(C)(C)C)c2cc(C(C)C)ccc2n1Cc1ccc(Cl)cc1` it is 850 nM.

Molecule `CC(C)CNCc1cccc(-c2cccc(CN(CCCN3CCN(C)CC3)C(=O)NC3CCCCC3)c2)c1` registered an IC50 of 760 nM. The result for `CCCCc1ccc(-c2ccc(-c3c(C)[nH]c(C)c(Br)c3=O)cn2)cc1` reads 60 nM.
